# In PMC9950556, “Acetylcholinesterase inhibitory activity of sesquiterpenoids isolated from Laggera pterodonta” (Frontiers in Plant Science, 2023):
# Values joined by “and” are separate entries in the source; they are usually repeats but may differ in a detail not shown here. Identical values can stand only once. “Also recorded” adds a separate entry of the source.
# Legend:
# C. elegans = assay: Toxic effects of compounds on C. elegans (lethality); type: in vivo; conditions: Caenorhabditis elegans, 48 h, mean ± SD, read-out: Lethality rate (%); for mortality at 500 µg/mL: compound 0.5 mg/mL
# Method: In the toxicity analysis, 95 µL of the nematode solution (containing approximately 80 C. elegans) along with 5 µL of each compound was added to a 96-well plate. The final concentration of each compound was 0.5 mg/mL, and chlorpyrifos (20 µg/mL) was used as the positive control. The samples were mixed sufficiently, followed by 48-h incubation of plates under RT, and subsequently, the dead nematodes were counted to determine the lethality rate ([Roh and Choi, 2008]).
# C. elegans AChE = assay: Determination of IC50 of compounds to AChE (Ellman method, nematode homogenate); type: biochemical; conditions: 2-h incubation at 37°C, mean ± SD, triplicates, read-out: IC50 of AChE inhibition
# Method: Third-instar juvenile stage samples of C. elegans were thoroughly ground using a glass homogenizer. The homogenate was then dissolved in PBS (pH 7.0, which contained 0.1% Triton X-100) using a suitable volume, followed by a 30-min centrifugation at 6000 r/min under 4°C to harvest supernatants to analyze the enzymes ([Ellman et al., 1961]; [Zhao et al., 2018]) [Nematode (3rd instar): 4000 individuals/mL].
# After dissolving the eight compounds and chlorpyrifos in acetone, multiple dilutions were made to obtain test concentrations at 5 levels. Thereafter, the test solution of every level (4 µL) was blended with the enzyme solution (96 µL), followed by 2-h incubation at 37°C in a 96-well plate. The final concentrations of compounds were 29.25, 58.50, 117.00, 234.00, and 468.00 µg/mL, respectively. Thereafter, 1.5 mM acetylthiocholine iodide (ATCHI) (50 µL) was added for a further 0.5-h incubation at 37°C. The reaction was finally terminated by adding 0.3 mM 5,5′- dithiobis (2 - nitrobenzoic acid) (DTNB) (50 µL). Afterward, the residual activity of acetylcholinesterase was measured with a microplate reader at 405 nm. Corresponding treatments were then applied to different groups as given below:
# The inhibition rate (%) was calculated follows:
# I%=[1−(Treatment group−Compound control group)/(Substrate control group−PBS control group)]×100%
# nematode AChE = assay: Kinetic study on the inhibitory effect of AChE by compound (Lineweaver-Burk and Dixon plots); type: biochemical, C. elegans
# Method: This study prepared the enzyme solution at multiple gradients (0.125, 0.25, 0.5, and 1.0 U/mL). After adding compound 5 (29.25, 58.50, 117.00, 234.00, and 468.00 µg/mL), the mixed sample was then subjected to a 1-h incubation on a 96-well plate at 37°C (the buffer was used as a substitute for the control group). Later, 1.5 mM ATCHI (50 µL) was added and incubated for a 30-min period, followed by an addition of the 0.3 mM DTNB (50 µL). After 30 s, a microplate reader was utilized to record the OD value at 405 nm (five times at 1-min intervals). The change in the OD value every minute was used to calculate the reaction rate (ΔA/min). Later, the reaction rate curve, as a function of enzyme concentration, was plotted to compare reaction rates (v) among diverse test compound levels. Associations between diverse enzyme levels were utilized to evaluate the inhibitory effect of the compound on nematode AChE ([Xiong et al., 2016]).
SMILES,mortality at 20 µg/mL (C. elegans; positive control 20 µg/mL),IC50 (C. elegans AChE),mortality at 500 µg/mL (C. elegans),"Ki (dissociation constant of the enzyme-inhibitor complex) (nematode AChE; Dixon plot, substrate 3 and 6 mM)","type of AChE inhibition (nematode AChE; enzyme-concentration plot, Lineweaver-Burk and Dixon plots)"
"CCOP(=S)(OCC)Oc1nc(Cl)c(Cl)cc1Cl [Chlorpyrifos, chlorpyrifos, reference compound]",81.7 ± 2.6%,7.33 ± 0.58 µM,,,
"C=C(C(=O)O)C1CCC2=CC(O)CC(C)C2(C)C1 (centres unmarked) [Compound 1, laggeranine A]",,< 530 µM and 518 µM,38.8 ± 2.5%,,
"C=C(C(=O)OCC)[C@@H]1CC[C@@]2(C)CCCC(=C)[C@]2(O)C1 [Compound 2, laggeranine B]",,< 710 µM and 701 µM,31.7 ± 0.72%,,
"C=C(C(=O)O)[C@H]1C=C2[C@@H](C)CCC[C@]2(C)CC1 [Compound 3, eudesma-5,12-dien-13-oic acid]",,464 ± 10 µM,60.8 ± 2.6%,,
"C=C(C(=O)O)[C@@H]1CC[C@@]2(C)CCCC(C)=C2C1 [Compound 4, isocostic acid]",,< 530 µM and 528 µM,30.8 ± 1.91%,,
"C=C1CCC[C@]2(C)CC[C@@H](C(=C)C(=O)O)CC12 (some centres unmarked) [Compound 5, costic acid]",,437 ± 8.33 µM,72.9 ± 3.15%,24.668 µg/mL,reversible inhibitor; also recorded: mixed-type competitive
"C=C(C(=O)O)[C@@H]1CC[C@@]2(C)CCC[C@H](C)[C@]2(O)C1 [Compound 6, 5α-hydroxy-4α,15-dihydrocostic acid]",,470 ± 15.6 µM,48.8 ± 2.5%,,
"C=C(C(=O)O)[C@@H]1CC[C@@]2(C)CCCC(=C)[C@]2(O)C1 [Compound 7, 5α-hydroxycostic acid]",,485 ± 11.5 µM,50.8 ± 1.91%,,
"C=C(C(=O)O)[C@@H]1CC[C@@]2(C)CCC(=O)C(C)=C2C1 [Compound 8, 3-oxo-di-nor-eudesma-4-en-11-oic acid]",,< 710 µM and 697 µM,34.6 ± 1.44%,,
